In publication PMC8730602 (2022):

Legend:
[1] = tested on: thiolated cortisol aptamer (DNA, aptamer) CGACCGGTCTGGGGACCCTGTCTGGGTGTGTGGGTAGTAGGTCG; test: aptamer field-effect transistor; details: artificial sweat (Table S5), immobilised aptamer; for binding: negligible response at physiological concentrations versus 10 nM cortisol
[2] = tested on: cortisol aptamer, fluorescein at 5' end (DNA, aptamer) CTCTCGGGACGACCGGTCTGGGGACCCTGTCTGGGTGTGTGGGTAGTAGGTCGTCCC; test: competitive structure-switching fluorescence (FAM/dabcyl); details: 154 mM NaCl, 1.058 mM KH2PO4, 2 mM MgCl2; PBS pH 7.3-7.5; dabcyl quencher strand GGTCGTCCCGAGAG displaced, aptamer:quencher 1:5
[3] = tested on: thiolated serotonin aptamer (DNA, aptamer) CGACTGGTAGGCAGATAGGGGAAGCTGATTCGATGCGTGGGTCG; test: aptamer field-effect transistor; details: artificial sweat (Table S5); immobilised aptamer; response over 10 fM to 100 µM

| binding [1] | Kd ([1]; on-FET, gate-voltage sweep, apparent) | Kd [2] [nM] | binding [3] | Structure (SMILES) |
| --- | --- | --- | --- | --- |
| no |  |  |  | CC(=O)[C@H]1CC[C@H]2[C@@H]3CCC4=CC(=O)CC[C@]4(C)[C@H]3CC[C@]12C |
|  | ~ 30 pM | 500 |  | C[C@]12CCC(=O)C=C1CC[C@@H]1[C@@H]2[C@@H](O)C[C@@]2(C)[C@H]1CC[C@]2(O)C(=O)CO |
| no |  |  |  | C[C@]12CC[C@H]3[C@@H](CCC4=CC(=O)CC[C@@]43C)[C@@H]1CC[C@@H]2O |
| no |  |  | yes | NCCc1c[nH]c2ccc(O)cc12 |
